Measured values taken from ChEMBL document CHEMBL1150498, “Novel derivatives of pseudomonic acid” (Bioorg Med Chem Lett, 1997).
In brackets after ≈: the same amount, converted by molar mass.

system: Staphylococcus aureus; test: Compound was evaluated for inhibitory activity against Staphylococcus aureus ATCC 6538P; format: functional

Structure (SMILES) | MIC
CCCS(=O)(=O)N[C@H]1CO[C@@H](C/C=C/C(=O)OCCCCCCCCC(=O)OC)[C@H](O)[C@@H]1O | > 100 µg/mL
CCCCS(=O)(=O)N[C@H]1CO[C@@H](C/C=C/C(=O)OCCCCCCCCC(=O)OC)[C@H](O)[C@@H]1O | > 100 µg/mL
COC(=O)CCCCCCCCOC(=O)/C=C/C[C@@H]1OC[C@H](NS(C)(=O)=O)[C@@H](O)[C@H]1O | > 100 µg/mL

Now those with a lower MIC, led by results:

MIC | Structure (SMILES)
50 µg/mL (≈ 94.7 µM) | COC(=O)CCCCCCCCOC(=O)/C=C/C[C@@H]1OC[C@H](NS(=O)(=O)CCCCl)[C@@H](O)[C@H]1O
25 µg/mL (≈ 44.5 µM) | COC(=O)CCCCCCCCOC(=O)/C=C/C[C@@H]1OC[C@H](NS(=O)(=O)c2cccc(Cl)c2)[C@@H](O)[C@H]1O
